Entries after “also recorded” stand apart in the source; their conditions may differ.
What was measured:
[1] = system: glucocorticoid response element (GRE); experiment: Transactivation assay, GRE-luciferase reporter in HEK-293 cells; type: cell-based; settings: HEK-293 GRE-luciferase, 0.01 to 100 μg/ml, 6 h
[2] = system: glucocorticoid receptor (GR); settings: cited from earlier work
[3] = biological target: T1, GR (Homo sapiens, UniProt P04150); experiment: GR Nuclear Translocation PathHunter assay; type: cell-based; settings: for Rank GR translocation: rank among tested compounds; for GR translocation activity: Fig. 3
T1 sequence (P04150 1-777): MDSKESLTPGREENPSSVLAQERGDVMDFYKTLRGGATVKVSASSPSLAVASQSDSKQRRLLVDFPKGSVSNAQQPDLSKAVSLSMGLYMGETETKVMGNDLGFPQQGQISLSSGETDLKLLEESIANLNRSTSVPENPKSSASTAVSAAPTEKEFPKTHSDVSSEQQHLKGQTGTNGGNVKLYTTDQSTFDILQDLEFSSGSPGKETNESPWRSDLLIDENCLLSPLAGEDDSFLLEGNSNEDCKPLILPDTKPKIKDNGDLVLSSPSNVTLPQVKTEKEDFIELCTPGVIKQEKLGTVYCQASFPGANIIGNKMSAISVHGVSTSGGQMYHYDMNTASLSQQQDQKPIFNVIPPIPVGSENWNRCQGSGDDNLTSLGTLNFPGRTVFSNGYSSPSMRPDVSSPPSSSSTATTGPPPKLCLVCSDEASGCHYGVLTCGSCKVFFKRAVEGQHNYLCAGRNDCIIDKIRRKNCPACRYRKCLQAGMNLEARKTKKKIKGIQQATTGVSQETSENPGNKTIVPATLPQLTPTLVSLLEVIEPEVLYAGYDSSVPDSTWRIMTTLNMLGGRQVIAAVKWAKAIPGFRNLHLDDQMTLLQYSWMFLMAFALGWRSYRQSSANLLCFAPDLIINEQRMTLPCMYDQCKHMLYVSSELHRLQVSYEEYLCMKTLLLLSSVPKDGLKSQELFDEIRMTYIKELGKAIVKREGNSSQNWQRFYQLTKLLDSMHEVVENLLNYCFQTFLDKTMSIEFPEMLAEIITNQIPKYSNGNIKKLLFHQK

[4] = system: mineralocorticoid receptor (MR); settings: cited from earlier work
[5] = Pharmacokinetics in CD1 mice, IV and PO; type: in vivo; settings: for AUC0, total, unbound / Cmax, total, unbound: Table 4
[6] = system: NF-κB; type: cell-based; settings: C2C12 myoblasts and myotubes, Fig. 2/3
[7] = Micronucleus test; settings: Positive/negative
[8] = Ames test; settings: Positive/negative
[9] = Metabolic stability in rat liver microsomes; type: in vitro ADME; settings: 60 min, NADPH
[10] = Pharmacokinetics in Sprague–Dawley rats, IV and PO; type: in vivo
[11] = Metabolite identification in dog hepatocytes; type: in vitro ADME; settings: 10 μM, 2 and 4 h
[12] = Metabolite identification in human hepatocytes; type: in vitro ADME; settings: 10 μM, 2 and 4 h
[13] = system: CYP1A2; experiment: CYP1A2 induction in human hepatocytes; type: in vitro ADME; settings: three human hepatocyte donors, 1, 10, 100 μM, relative to omeprazole
[14] = Metabolite identification in monkey hepatocytes; type: in vitro ADME; settings: 10 μM, 2 and 4 h
[15] = Pharmacokinetics in beagle dogs, IV and PO; type: in vivo
[16] = system: CYP3A4; experiment: CYP3A4 induction in human hepatocytes; type: in vitro ADME; settings: three human hepatocyte donors, 1, 10, 100 μM, % of positive control rifampin
[17] = Metabolite identification in rat hepatocytes; type: in vitro ADME; settings: 10 μM, 2 and 4 h
[18] = single administration, cited from earlier work
[19] = CD1 mice, IV 10 mg/kg, 10 mg/kg

Structure (SMILES): C[C@]12C=CC(=O)C=C1CC[C@@H]1[C@@H]2C(=O)C[C@@]2(C)[C@H]1CC[C@]2(O)C(=O)CO [Prednisone, reference compound]
- GRE-dependent gene transcription (luciferase) [1]: induced luciferase expression

Structure (SMILES): C[C@]12CCC(=O)C=C1CC[C@@H]1C2=CC[C@@]2(C)[C@H]1CC[C@]2(O)C(=O)CO [VBP1]
- binding to the GR [2]: relatively high affinity binding
- Rank GR translocation [3]: 6
- binding to the MR [4]: relatively high affinity binding

Structure (SMILES): C[C@@H]1C[C@H]2[C@@H]3CCC4=CC(=O)C=C[C@]4(C)C3=CC[C@]2(C)[C@H]1C(=O)CO [VBP6]
- GR translocation activity [3]: high activities
- Rank GR translocation [3]: 4
- AUC/D ([5]; CD1 mice, IV 10 mg/kg): 345 ng·h/mL
- AUC/D ([5]; CD1 mice, PO 50 mg/kg, 30% Labrafil): 440 ng·h/mL
- NF-κB inhibition activity [6]: high activities

Structure (SMILES): CC(=O)OCC(=O)[C@H]1[C@H](C)C[C@H]2[C@@H]3CCC4=CC(=O)C=C[C@]4(C)C3=CC[C@@]21C [VBP7]
- GR translocation activity [3]: high activities
- Rank GR translocation [3]: 7
- NF-κB inhibition activity [6]: high activities

Structure (SMILES): C[C@@H]1C[C@H]2[C@@H]3CCC4=CC(=O)C=C[C@]4(C)C3=CC[C@]2(C)[C@@]1(O)C(=O)CO [VBP15]
- GRE-dependent gene transcription (luciferase) [1]: lack of transactivation properties; also recorded: lacks GRE-mediated transcriptional activity
- Micronucleus test [7]: Negative
- Ames test [8]: Negative
- Stability–microsomes, remaining at 1 h [9]: Rat = 35.4%
- GR translocation activity [3]: high activities
- AUC0, total, unbound ([10]; Rat 10 mpk IV): 8339 (IV) h ng/mL
- AUC0, total, unbound ([10]; Rat 50 mpk PO): 19937 (PO) h ng/mL
- Cmax, total, unbound ([10]; Rat 50 mpk PO, 50 mg/kg): 2543 (PO) ng/mL
- Clobs [5, 19]: 18.8 (IV) mL/min/kg
- Vssobs [5, 19]: 0.757 (IV) L/kg
- AUC0, total, unbound ([5]; Mouse 10 mpk IV): 8842 (IV) h ng/mL
- Cmax, total, unbound ([5]; Mouse 10 mpk IV): 11167 (IV) ng/mL
- AUC0, total, unbound ([5]; Mouse 50 mpk PO): 32932 (PO) h ng/mL
- Cmax, total, unbound ([5]; Mouse 50 mpk PO, 50 mg/kg): 6787 (PO) ng/mL
- number of metabolites identified [11]: 3
- number of metabolites identified [12]: Four
- CYP1A2 induction [13]: no induction
- number of metabolites identified [14]: Four
- AUC0, total, unbound ([15]; Dog 10 mpk IV): 6791 (IV) h ng/mL
- AUC0, total, unbound ([15]; Dog 30 mpk PO): 10844 (PO) h ng/mL
- Cmax, total, unbound ([15]; Dog 30 mpk PO, 30 mg/kg): 814 (PO) ng/mL
- CYP3A4 induction [16]: 24–42%
- number of metabolites identified [17]: 5
- NF-κB inhibition activity [6]: high activities

Structure (SMILES): CC(=O)OCC(=O)[C@@]1(O)CC[C@@H]2[C@H]3CCC4=CC(=O)CC[C@]4(C)C3=CC[C@@]21C [anecortave acetate, [2-[(8R,10S,13S,14R,17R)-17-hydroxy-10,13-dimethyl-3-oxo-2,6,7,8,12,14,15,16-octahydro-1H-cyclopenta[a]phenanthren-17-yl]-2-oxo-ethyl] acetate, reference compound]
- binding to the GR [2]: relatively high affinity binding
- reduction in IOP ([18]; best dose): 31%
- mean duration of IOP benefit [18]: 56 days
- binding to the MR [4]: relatively high affinity binding

Structure (SMILES): C[C@]12C=CC(=O)C=C1CC[C@@H]1[C@@H]2[C@@H](O)C[C@@]2(C)[C@H]1CC[C@]2(O)C(=O)CO [prednisolone, reference compound]
- GRE-dependent gene transcription (luciferase) [1]: significant dose-dependent response
